Like-named read-outs stand apart in the source and are kept apart here.
What was measured:
human OX2 receptor = target: T1, human OX2 receptor (Homo sapiens, UniProt O43614); assay: Measurement of orexin type 2 receptor agonist activity (Experimental Example 2; Fluo-4 AM calcium fluorescence, FDSS μCELL); assay type: cell-based; conditions: compound at 3 μM; CHO cells expressing human OX2 receptor; DMSO = 0%, 10 nM orexin A (human) = 100%
T1 construct: expressed in transfected cells
T1 sequence (O43614 1-444): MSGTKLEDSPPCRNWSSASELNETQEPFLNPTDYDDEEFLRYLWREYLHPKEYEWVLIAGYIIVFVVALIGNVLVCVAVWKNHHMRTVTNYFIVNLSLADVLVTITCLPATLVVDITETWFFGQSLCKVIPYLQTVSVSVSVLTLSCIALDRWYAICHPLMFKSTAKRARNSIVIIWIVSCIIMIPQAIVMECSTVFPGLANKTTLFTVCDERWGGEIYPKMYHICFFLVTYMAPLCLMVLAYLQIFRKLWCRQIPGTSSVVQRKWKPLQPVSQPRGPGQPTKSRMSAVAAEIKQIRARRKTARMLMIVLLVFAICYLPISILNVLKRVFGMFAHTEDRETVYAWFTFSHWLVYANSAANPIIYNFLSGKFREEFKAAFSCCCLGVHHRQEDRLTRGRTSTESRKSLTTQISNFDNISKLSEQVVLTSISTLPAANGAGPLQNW
In short: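 Agonism was tested in CHO-K1 cells stably expressing human OX2 receptor (residues 1-444), loaded with Fluo-4 AM plus probenecid. Calcium fluorescence was recorded for 1 min 40 s after compound addition. Activity (%) was scaled between DMSO (0%) and 10 nM orexin A (100%) and reported at 3 μM compound.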

Structure (SMILES) | OX2R agonist activity (3 μM, %) (human OX2 receptor) [%] | further results
CCS(=O)(=O)N[C@@H]1[C@@H]2Cc3cccc(c3F)Oc3nc(ccc3C)CNC(=O)N2CC1(F)F [Example 5, N-[(15aS,16R)-17,17,20-trifluoro-7-methyl-1-oxo-2,3,15a,16,17,18-hexahydro-1H,15H-4,8-(azeno)-10,14-(metheno)pyrrolo[1,2-j][1,8,10]oxadiazacyclo-heptadecin-16-yl]ethanesulfonamide] | 102 | ring closure, yield of all isomers (from CCS(=O)(=O)N[C@@H]1[C@H](Cc2cccc(Oc3nc(CN)ccc3C)c2F)NCC1(F)F, other bond, di(N-succinimidyl) carbonate/4-methylmorpholine/DIPEA, THF, 1.81 mM, 25.0 °C, 12.0 h): 21%
Cc1ccc2nc1Oc1cccc(c1)C[C@H]1[C@@H](NS(C)(=O)=O)CCN1C(=O)CC2 [Example 7, N-[(1S,19aS)-11-methyl-5-oxo-2,3,6,7,19,19a-hexahydro-1H, 5H-8,12-(azeno)-14,18-(metheno)pyrrolo[2,1-h][1,9]oxazacycloheptadecin-1-yl]methanesulfonamide] | 103 | ring closure, yield of all isomers (from Cc1ccc(CCC(=O)O)nc1Oc1cccc(C[C@@H]2NCC[C@@H]2NS(C)(=O)=O)c1, amide bond, PyBOP/TEA, THF, 0.231 mM, 25.0 °C, 4.0 h): 20%
Cc1ccc2nc1Oc1cccc(c1F)C[C@H]1[C@@H](NC(=O)OCc3ccccc3)C(F)(F)CN1C(=O)NC2 |  | ring closure, yield of all isomers (from Cc1ccc(CN)nc1Oc1cccc(C[C@@H]2NCC(F)(F)[C@@H]2NC(=O)OCc2ccccc2)c1F, other bond, di(N-succinimidyl) carbonate, THF, 2.0 mM, 70.0 °C, 5.2 h): 78.8%
Cc1ccc2nc1COc1cccc(c1F)C[C@H]1[C@@H](NS(C)(=O)=O)C(F)(F)CN1C(=O)NC2 [Example 54, N-[(16aS,17R)-18,18,21-trifluoro-7-methyl-1-oxo-2,3,16a,17,18,19-hexahydro-1H,9H,16H-4,8-(azeno)-11,15-(metheno)pyrrolo[2,1-h][1,9,11]oxadiazacyclo-octadecin-17-yl]methanesulfonamide] | 87 | ring closure, yield of all isomers (from Cc1ccc(CNC(=O)OC(C)(C)C)nc1COc1cccc(C[C@H]2[C@@H](NS(C)(=O)=O)C(F)(F)CN2C(=O)OC(C)(C)C)c1F, other bond, di(N-succinimidyl) carbonate / N-methylmorpholine, DIPEA, THF, 2.78 mM, 60.0 °C, 22.0 h, 2 steps): 14.4%
Cc1ccc2nc1Oc1cccc(c1F)C[C@H]1[C@@H](NS(C)(=O)=O)[C@@H](F)CN1C(=O)NC2 [Example 10, N-[(15aS,16R,17S)-17,20-difluoro-7-methyl-1-oxo-2,3,15a,16,17,18-hexahydro-1H,15H-4,8-(azeno)-14,10-(metheno)pyrrolo[1,2-j][1,8,10]oxadiazacyclo-heptadecin-16-yl]methanesulfonamide] | 96 | ring closure, yield of all isomers (from Cc1ccc(CN)nc1Oc1cccc(C[C@@H]2NC[C@H](F)[C@@H]2NS(C)(=O)=O)c1F, other bond, CDI, THF, 2.12 mM, 25.0 °C, 18.0 h): 16.7%
Cc1ccc2nc1Oc1cccc(c1)C[C@H]1[C@@H](NS(C)(=O)=O)CCN1C(=O)NC2 [Example 1, N-[(15aS,16S)-7-methyl-1-oxo-2,3,15a,16,17,18-hexahydro-1H,15H-4,8-(azeno)-10,14-(metheno)pyrrolo[1,2-j][1,8,10]oxadiazacyclo-heptadecin-16-yl]methanesulfonamide] | 107 | ring closure, yield of all isomers (from Cc1ccc(CN)nc1Oc1cccc(C[C@@H]2NCC[C@@H]2NS(C)(=O)=O)c1, other bond, CDI/DIPEA, DMF, 2.15 mM, 25.0 °C, 12.0 h): 29.9%
Cc1ccc2nc1Oc1cccc(c1)C[C@H]1[C@@H](NS(C)(=O)=O)CCN1C(=O)CO2 [Example 33, N-[(15aS,16S)-7-methyl-1-oxo-1,2,15a,16,17,18-hexahydro-15H-4,8-(azeno)-10,14-(metheno)pyrrolo[1,2-d][1,12,4]dioxazacyclo-heptadecin-16-yl]methanesulfonamide] | 102 | ring closure, yield of all isomers (from Cc1ccc(OCC(=O)O)nc1Oc1cccc(C[C@@H]2NCC[C@@H]2NS(C)(=O)=O)c1, amide bond, PyBOP, THF, 0.92 mM, 25.0 °C, 12.0 h): 3.4%
Cc1ccc2nc1Oc1cccc(c1F)C[C@H]1[C@@H](NS(C)(=O)=O)C(F)(F)CN1C(=O)NC2 [Example 4, N-[(15aS,16R)-17,17,20-trifluoro-7-methyl-1-oxo-2,3,15a,16,17,18-hexahydro-1H,15H-4,8-(azeno)-10,14-(metheno)pyrrolo[1,2-j][1,8,10]oxadiazacyclo-heptadecin-16-yl]methanesulfonamide] | 105 | ring closure, yield of all isomers (from Cc1ccc(CN)nc1Oc1cccc(C[C@@H]2NCC(F)(F)[C@@H]2NS(C)(=O)=O)c1F, other bond, di(N-succinimidyl) carbonate/DIPEA, THF, 7.42 mM, 25.0 °C, 16.0 h): 40.1%
Cc1ccc2nc1Oc1cccc(c1F)C[C@H]1[C@@H](NS(C)(=O)=O)C(F)(F)CN1C(=O)NC2C (stereo partly drawn) [Example 51, N-[(15aS,16R)-17,17,20-trifluoro-3,7-dimethyl-1-oxo-2,3,15a,16,17,18-hexahydro-1H,15H-4,8-(azeno)-14,10-(metheno)pyrrolo[1,2-j][1,8,10]oxadiazacyclo-heptadecin-16-yl]methanesulfonamide (optical isomer)] | 103 | ring closure, yield of all isomers (from Cc1ccc(C(C)N)nc1Oc1cccc(C[C@@H]2NCC(F)(F)[C@@H]2NS(C)(=O)=O)c1F, other bond, di(N-succinimidyl) carbonate, THF, 1.23 mM, 60.0 °C): 7.7%
CCS(=O)(=O)N[C@H]1[C@@H](F)CN2C(=O)NCc3ccc(Cl)c(c3)Oc3cccc(c3F)C[C@@H]12 [Example 39, N-[(15aS,16R,17S)-7-chloro-17,20-difluoro-1-oxo-2,3,15a,16,17,18-hexahydro-1H,15H-4,8:14,10-di(metheno)pyrrolo[1,2-j][1,8,10]oxadiazacyclo-heptadecin-16-yl]ethanesulfonamide] | 105 | 
Cc1ccc2nc1Oc1cccc(c1)C[C@H]1[C@@H](NS(C)(=O)=O)CCN1C(=O)N(C)C2 [Example 40, N-[(15aS,16S)-2,7-dimethyl-1-oxo-2,3,15a,16,17,18-hexahydro-1H,15H-4,8-(azeno)-10,14-(metheno)pyrrolo[1,2-j][1,8,10]oxadiazacyclo-heptadecin-16-yl]methanesulfonamide] | 103 | 
Cc1cnc2nc1Oc1cccc(c1F)C[C@H]1[C@@H](NS(C)(=O)=O)C(F)(F)CN1C(=O)[C@@H]1CCCN21 [Example 59, N-[(16aS,17R,21aS)-18,18,22-trifluoro-8-methyl-21-oxo-2,3,16a,17,18,19,21,21a-octahydro-1H,16H-5,9-(azeno)-11,15-(metheno)dipyrrolo[1,2-g:1′,2′-j][1,5,7,10]oxatriazacyclo-heptadecin-17-yl]methanesulfonamide] | 106 | 
CS(=O)(=O)N[C@H]1[C@@H](F)CN2C(=O)NCc3ccc(Cl)c(c3)Oc3cccc(c3F)C[C@@H]12 [Example 12, N-[(15aS,16R,17S)-7-chloro-17,20-difluoro-1-oxo-2,3,15a,16,17,18-hexahydro-1H,15H-4,8:14,10-di(metheno)pyrrolo[1,2-j][1,8,10]oxadiazacyclo-heptadecin-16-yl]methanesulfonamide] | 99 | 
CCS(=O)(=O)N[C@H]1[C@@H](F)CN2C(=O)NCc3ccc(F)c(n3)Oc3cccc(c3F)C[C@@H]12 [Example 31, N-[(15aS,16R,17S)-7,17,20-trifluoro-1-oxo-2,3,15a,16,17,18-hexahydro-1H,15H-4,8-(azeno)-14,10-(metheno)pyrrolo[1,2-j][1,8,10]oxadiazacyclo-heptadecin-16-yl]ethanesulfonamide] | 102 | 
CCS(=O)(=O)N[C@@H]1[C@@H]2Cc3cccc(c3F)Oc3ccc(F)c(n3)CNC(=O)N2CC1(F)F [Example 50, N-[(15aS,16R)-5,17,17,20-tetrafluoro-1-oxo-2,3,15a,16,17,18-hexahydro-1H,15H-4,8-(azeno)-14,10-(metheno)pyrrolo[1,2-j][1,8,10]oxadiazacyclo-heptadecin-16-yl]ethanesulfonamide] | 88 | 
CCS(=O)(=O)N[C@@H]1[C@@H]2Cc3cc(ccc3F)Oc3nc(ccc3C)CNC(=O)N2CC1(F)F (relative stereo) [Example 90, N-[rel-(15aS,16R)-13,17,17-trifluoro-7-methyl-1-oxo-2,3,15a,16,17,18-hexahydro-1H,15H-4,8-(azeno)-14,10-(metheno)pyrrolo[1,2-j][1,8,10]oxadiazacyclohepta-decin-16-yl]ethanesulfonamide (optical isomer)] | 108 | 
Cc1ccc2nc1Oc1cccc(c1F)C[C@H]1[C@@H](NS(=O)(=O)N(C)C)C(F)(F)CN1C(=O)NC2 [Example 11, N,N-dimethyl-N′-[(15aS,16R)-17,17,20-trifluoro-7-methyl-1-oxo-2,3,15a,16,17,18-hexahydro-1H,15H-4,8-(azeno)-14,10-(metheno)pyrrolo[1,2-j][1,8,10]oxadiazacyclo-heptadecin-16-yl]sulfuric diamide] | 98 | 
CCS(=O)(=O)N[C@H]1[C@@H](F)CN2C(=O)NCc3ccc(C)c(n3)Oc3cccc(c3F)C[C@@H]12 [Example 25, N-[(15aS,16R,17S)-17,20-difluoro-7-methyl-1-oxo-2,3,15a,16,17,18-hexahydro-1H,15H-4,8-(azeno)-14,10-(metheno)pyrrolo[1,2-j][1,8,10]oxadiazacyclo-heptadecin-16-yl]ethanesulfonamide] | 105 | 
